The target in one experiment is Dipeptidyl peptidase 4 (Homo sapiens, UniProt P27487). The experiment in a line: Inhibitory activity against human DPP4 using Gly-Pro-AMC in fluorometric assay.
Experiment [1] concerns the target T1, Dipeptidyl peptidase 2 (Homo sapiens, UniProt Q9UHL4). The experiment in a line: Inhibitory activity against human DPP7 using Ala-Pro-AMC in fluorometric assay.
Another experiment deals with T2, Prolyl endopeptidase FAP (Homo sapiens, UniProt Q12884).
T2 sequence (Q12884 whole entry): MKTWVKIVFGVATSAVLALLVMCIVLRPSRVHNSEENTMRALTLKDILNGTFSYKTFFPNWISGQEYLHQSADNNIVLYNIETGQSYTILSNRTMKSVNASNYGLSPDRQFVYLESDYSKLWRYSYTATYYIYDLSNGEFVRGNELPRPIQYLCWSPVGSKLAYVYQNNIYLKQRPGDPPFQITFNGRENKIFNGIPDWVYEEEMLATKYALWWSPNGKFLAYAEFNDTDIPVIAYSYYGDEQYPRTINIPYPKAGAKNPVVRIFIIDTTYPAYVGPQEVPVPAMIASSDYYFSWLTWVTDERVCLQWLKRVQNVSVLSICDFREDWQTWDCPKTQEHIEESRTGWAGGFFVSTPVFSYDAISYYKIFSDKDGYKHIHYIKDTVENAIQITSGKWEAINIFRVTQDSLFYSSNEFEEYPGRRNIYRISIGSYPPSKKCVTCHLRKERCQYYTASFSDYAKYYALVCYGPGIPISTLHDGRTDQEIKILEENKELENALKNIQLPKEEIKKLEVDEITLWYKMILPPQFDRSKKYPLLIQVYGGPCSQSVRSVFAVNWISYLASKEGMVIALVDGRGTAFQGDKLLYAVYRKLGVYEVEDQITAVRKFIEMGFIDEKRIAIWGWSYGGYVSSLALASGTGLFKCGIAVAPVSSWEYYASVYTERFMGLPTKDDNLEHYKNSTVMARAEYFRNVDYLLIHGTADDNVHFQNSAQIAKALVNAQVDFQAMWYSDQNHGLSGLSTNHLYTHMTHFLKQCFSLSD
The experiment is described as follows: Inhibitory activity against human FAP using Lys-Pro-AMC in fluorimetric assay; No inhibition.

Experiment [2] addresses T1, Dipeptidyl peptidase 2. The experiment is described as follows: Inhibitory activity against human DPP7 using Ala-Pro-AMC in fluorometric assay; No inhibition.
Experiment [3] concerns the target Prolyl endopeptidase FAP (Homo sapiens) (UniProt Q12884). The experiment is described as follows: Inhibition of human FAP using Lys-Pro-AMC in fluorometric assay at 33 uM.

From ChEMBL document CHEMBL1141049, “Synthesis and structure-activity relationship of N-alkyl Gly-boro-Pro inhibitors of DPP4, FAP, and DPP7” (Bioorg Med Chem Lett, 2005) come the findings set out here.

Chain of Dipeptidyl peptidase 4 (P27487 whole entry): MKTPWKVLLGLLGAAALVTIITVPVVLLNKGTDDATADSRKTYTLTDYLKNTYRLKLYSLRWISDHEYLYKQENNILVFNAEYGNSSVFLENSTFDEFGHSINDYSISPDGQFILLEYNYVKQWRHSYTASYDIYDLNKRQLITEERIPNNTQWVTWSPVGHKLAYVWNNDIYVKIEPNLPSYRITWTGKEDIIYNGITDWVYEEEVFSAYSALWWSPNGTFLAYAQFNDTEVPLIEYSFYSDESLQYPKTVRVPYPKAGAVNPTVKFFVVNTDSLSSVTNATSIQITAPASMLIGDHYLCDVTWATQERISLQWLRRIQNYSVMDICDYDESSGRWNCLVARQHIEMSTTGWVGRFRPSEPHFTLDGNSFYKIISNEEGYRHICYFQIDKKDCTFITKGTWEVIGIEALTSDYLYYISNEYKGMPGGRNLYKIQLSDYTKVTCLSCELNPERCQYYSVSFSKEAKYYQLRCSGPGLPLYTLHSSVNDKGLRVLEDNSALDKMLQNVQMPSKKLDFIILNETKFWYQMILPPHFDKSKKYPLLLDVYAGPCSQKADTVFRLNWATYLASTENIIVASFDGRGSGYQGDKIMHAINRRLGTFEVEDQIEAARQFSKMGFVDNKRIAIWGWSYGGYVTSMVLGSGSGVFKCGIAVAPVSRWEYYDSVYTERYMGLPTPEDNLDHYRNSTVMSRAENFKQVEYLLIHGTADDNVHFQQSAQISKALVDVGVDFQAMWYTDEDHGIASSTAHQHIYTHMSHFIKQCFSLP

Usually IC50 stands for the concentration at which inhibition is half-maximal. A higher IC50 goes with a need for much substance. For the compound `O=C(CNC1CCCCC1)N1CCC[C@H]1B(O)O`, the IC50 on Dipeptidyl peptidase 4 stood at 27 nM; at Dipeptidyl peptidase 2 [1], 4.1 nM.
`C[C@@H](N)C(=O)N1CCC[C@H]1B(O)O` gave an IC50 on Dipeptidyl peptidase 2 [1] of 6.3 nM.
As to `O=C(CNC1CCCCCCCCC1)N1CCC[C@H]1B(O)O`, the half-maximal inhibitory concentration (IC50) turned out to be 58 nM against Dipeptidyl peptidase 4 and 2.2 nM against Dipeptidyl peptidase 2 [1].
The like results for `O=C(CNC1CC2CCCC1C2)N1CCC[C@H]1B(O)O` (stereo partly specified) were, in that order, 25 nM and 8 nM.
For the compound `CN(CC(=O)N1CCC[C@@H]1B(O)O)C1C2CC3CC(C2)CC1C3` (stereo partly specified), the results for the IC50 at Dipeptidyl peptidase 4 and on Dipeptidyl peptidase 2 [1] were 1600 nM and 4600 nM, respectively.
Taken in the same sequence, the figures for `O=C(CNC1CCCCCC1)N1CCC[C@H]1B(O)O` were 7.8 nM and 1.8 nM.
The like results for `O=C(CNC1C2CC3CC(C2)CC1C3)N1CCC[C@@H]1B(O)O` (stereo partly specified) were, in that order, 12 nM and 120 nM.
For the compound `O=C(CNC1CCCC1)N1CCC[C@H]1B(O)O`, the figures for the IC50 on Dipeptidyl peptidase 4 and against Dipeptidyl peptidase 2 [1] were 25 nM and 15 nM, respectively.
Turning to `CC(C)[C@@H](NC1CCCCC1)C(=O)N1CCC[C@H]1B(O)O`, the half-inhibitory concentration (IC50) at Dipeptidyl peptidase 4 is 16000 nM; against Prolyl endopeptidase FAP it was “Not Active”; against Dipeptidyl peptidase 2 [2] it was “Not Active”.
As for `CCCCCC12CCC(NCC(=O)N3CCC[C@H]3B(O)O)(CC1)CC2`, the IC50 is 61 nM on Dipeptidyl peptidase 4 and 1 nM at Dipeptidyl peptidase 2 [1].
The inhibition is the drop in the measured response relative to a control, in per cent. In experiment [3], `O=C(CNC1CC1)N1CCC[C@H]1B(O)O` registered an inhibition of 30%. In addition, the IC50 at Dipeptidyl peptidase 4 is 130 nM; on Dipeptidyl peptidase 2 [1] it was 570 nM.
On to `O=C(CNC1CCC1)N1CCC[C@H]1B(O)O`, for which the half-inhibitory concentration (IC50) on Dipeptidyl peptidase 4 came to 75 nM; on Dipeptidyl peptidase 2 [1] it was 140 nM.
Taken in the same sequence, the figures for `O=C(CNC12CC3CC(CC(C3)C1)C2)N1CCC[C@@H]1B(O)O` were 8 nM and 420 nM.
Regarding `O=C(CNC1CCCCCCC1)N1CCC[C@H]1B(O)O`, the values for the IC50 against Dipeptidyl peptidase 4 and at Dipeptidyl peptidase 2 [1] were 27 nM and 4 nM, respectively.
The like results for `CC12CC3(C)CC(C)(C1)CC(NCC(=O)N1CCC[C@@H]1B(O)O)(C2)C3` were, in that order, 560 nM and 35 nM.
